The supplement of paper PMC11451515

Assays:
Conditions in all cases: 48 h
[1] = tested on: NOMO1; assay: cell viability relative to DMSO control; higher = less cytotoxic
Method in brief: (§1)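 Viability, reported as a per-plate percentage of DMSO wells with cell-free wells as background, came from CellTiter-Glo One luminescence. Reading took place after 48 h at 37°C. Before that, NOMO1 or SEM (500 cells/well) or P12-Ichikawa (1000 cells/well) leukemia cells, adapted for at least four passages in each medium, were seeded in 1536-well plates (5 μl) and pin-dosed with library compounds in DMSO, 47 μM to 0.79 nM over 11 threefold points.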

[2] = tested on: P12-Ichikawa; assay: as above
Method in brief: as §1

[3] = tested on: SEM cells; assay: as above
Method in brief: as §1

[4] = tested on: NOMO1; assay: AUC of viability dose-response curve (% viability x log10 dose units); higher = less sensitive
Method in brief: (§2)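 Leukemia cells adapted to each medium were seeded in 1536-well plates (500 or 1000 cells/well) and given library compounds in DMSO for 48 h at 37°C. The 11 threefold doses spanned 47 μM to 0.79 nM, and CellTiter-Glo One luminescence was normalised per plate to DMSO and cell-free wells before four-parameter log-logistic fitting on log10 dose. Area under the curve was integrated with the trapezoidal rule, scaling curves above full viability and removing curves that failed quality control.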

[5] = tested on: P12-Ichikawa; assay: as above
Method in brief: as §2

[6] = tested on: SEM cells; assay: as above
Method in brief: as §2

COc1ccc(C(=O)CC2(O)C(=O)Nc3c(Cl)ccc(Cl)c32)cc1 (centres undefined)
cell viability [%]
Conditions | [1] | [2] | [3]
HPLM + 10% dialyzed FBS, 0.000781 µM | 111 | 102 | 87
HPLM + 10% dialyzed FBS, 0.00234 µM | 115 | 114 | 108
HPLM + 10% dialyzed FBS, 0.00702 µM | 128 | 114 | 111
HPLM + 10% dialyzed FBS, 0.0211 µM | 119 | 114 | 110
HPLM + 10% dialyzed FBS, 0.0632 µM | 106 | 117 | 104
HPLM + 10% dialyzed FBS, 0.19 µM | 119 | 124 | 109
HPLM + 10% dialyzed FBS, 0.569 µM | 120 | 120 | 113
HPLM + 10% dialyzed FBS, 1.71 µM | 121 | 106 | 107
HPLM + 10% dialyzed FBS, 5.12 µM | 77.3 | 55 | 45.9
HPLM + 10% dialyzed FBS, 15.4 µM | 34.5 | 19.6 | 20.5
HPLM + 10% dialyzed FBS, 46.1 µM | 26.7 | 14.5 | 16.2
RPMI 5 mM glucose + 10% FBS, 0.000781 µM | 95.6 | 107 | 75.7
RPMI 5 mM glucose + 10% FBS, 0.00234 µM | 108 | 104 | 98.4
RPMI 5 mM glucose + 10% FBS, 0.00702 µM | 119 | 117 | 99.7
RPMI 5 mM glucose + 10% FBS, 0.0211 µM | 111 | 109 | 79.3
RPMI 5 mM glucose + 10% FBS, 0.0632 µM | 109 | 116 | 94.1
RPMI 5 mM glucose + 10% FBS, 0.19 µM | 113 | 125 | 85.1
RPMI 5 mM glucose + 10% FBS, 0.569 µM | 109 | 118 | 81.2
RPMI 5 mM glucose + 10% FBS, 1.71 µM | 123 | 106 | 65.7
RPMI 5 mM glucose + 10% FBS, 5.12 µM | 101 | 55.8 | 41.4
RPMI 5 mM glucose + 10% FBS, 15.4 µM | 25.6 | 14.1 | 10.7
RPMI 5 mM glucose + 10% FBS, 46.1 µM | 18.6 | 12.9 | 9.15
RPMI 5 mM glucose + 10% dialyzed FBS, 0.000781 µM | 89.5 | 98.9 | 94.8
RPMI 5 mM glucose + 10% dialyzed FBS, 0.00234 µM | 111 | 116 | 101
RPMI 5 mM glucose + 10% dialyzed FBS, 0.00702 µM | 110 | 126 | 107
RPMI 5 mM glucose + 10% dialyzed FBS, 0.0211 µM | 108 | 115 | 88.9
RPMI 5 mM glucose + 10% dialyzed FBS, 0.0632 µM | 108 | 120 | 104
RPMI 5 mM glucose + 10% dialyzed FBS, 0.19 µM | 120 | 128 | 107
RPMI 5 mM glucose + 10% dialyzed FBS, 0.569 µM | 117 | 122 | 107
RPMI 5 mM glucose + 10% dialyzed FBS, 1.71 µM | 108 | 105 | 90.3
RPMI 5 mM glucose + 10% dialyzed FBS, 5.12 µM | 99.2 | 81.9 | 47.3
RPMI 5 mM glucose + 10% dialyzed FBS, 15.4 µM | 26.6 | 25.4 | 20.4
RPMI 5 mM glucose + 10% dialyzed FBS, 46.1 µM | 22.4 | 27.5 | 14.9

AUC of viability dose-response curve
Conditions | [4] | [5] | [6]
HPLM + 10% dialyzed FBS | 408 | 388 | 391
RPMI 5 mM glucose + 10% FBS | 416 | 387 | 330
RPMI 5 mM glucose + 10% dialyzed FBS | 418 | 406 | 388

c1nc2c(NC3CCCCC3)nc(Nc3ccc(N4CCOCC4)cc3)nc2[nH]1
cell viability [%], [3]
Conditions | HPLM + 10% dialyzed FBS | RPMI 5 mM glucose + 10% FBS
0.000781 µM | 121 | 110
0.00234 µM | 118 | 113
0.00702 µM | 114 | 132
0.0211 µM | 120 | 121
0.0632 µM | 131 | 120
0.19 µM | 116 | 131
0.569 µM | 120 | 111
1.71 µM | 112 | 95.9
5.12 µM | 36.8 | 20.5
15.4 µM | 28.4 | 13.7
46.1 µM | 29.3 | 14.4

AUC of viability dose-response curve
Conditions | [4] | [5] | [6]
HPLM + 10% dialyzed FBS | 403 | 377 | 386
RPMI 5 mM glucose + 10% FBS | 399 | 364 | 364
RPMI 5 mM glucose + 10% dialyzed FBS | 405 | 384 | 363

COC1=CC=C2[C@H]3CC[C@]4(C)[C@H](CC[C@H]4[C@@H]3CCC2=C1)NCCCCCCN5C(=O)\C=C/C5=O
AUC of viability dose-response curve
Conditions | [4] | [5] | [6]
HPLM + 10% dialyzed FBS | 434 | 456 | 472
RPMI 5 mM glucose + 10% FBS | 444 | 448 | 459
RPMI 5 mM glucose + 10% dialyzed FBS | 462 | 444 | 408

C[N]1N=C(C)C2=C1OC(=C(/C#N)C2C3=CC=C(C=C3)C(F)(F)F)/N (centres undefined)
AUC of viability dose-response curve
Conditions | HPLM + 10% dialyzed FBS | RPMI 5 mM glucose + 10% FBS | RPMI 5 mM glucose + 10% dialyzed FBS
[5] | 457 | 467 | 454
[6] | 467 | 438 | 439

O=C(Nc1cc(C(F)(F)F)cc(C(F)(F)F)c1)c1cc(Cl)ccc1O
AUC of viability dose-response curve
Conditions | [4] | [5] | [6]
HPLM + 10% dialyzed FBS | 361 | 368 | 373
RPMI 5 mM glucose + 10% FBS | 368 | 361 | 357
RPMI 5 mM glucose + 10% dialyzed FBS | 363 | 361 | 370

Nc1ncnc2c1c(-c1cccc(OCc3ccccc3)c1)cn2[C@H]1C[C@@H](CN2CCC2)C1
cell viability [%], [3]
Conditions | HPLM + 10% dialyzed FBS | RPMI 5 mM glucose + 10% FBS
0.000781 µM | 103 | 110
0.00234 µM | 125 | 115
0.00702 µM | 119 | 121
0.0211 µM | 123 | 107
0.0632 µM | 117 | 112
0.19 µM | 126 | 107
0.569 µM | 109 | 123
1.71 µM | 114 | 117
5.12 µM | 96.4 | 111
15.4 µM | 75.3 | 91.3
46.1 µM | 62.9 | 64.4

AUC of viability dose-response curve
Conditions | [4] | [5] | [6]
HPLM + 10% dialyzed FBS | 433 | 458 | 437
RPMI 5 mM glucose + 10% FBS | 459 | 465 | 456
RPMI 5 mM glucose + 10% dialyzed FBS | 450 | 467 | 436
